1 compound from patent US7524840B2, “7,8-disubstituted pyrazolobenzodiazepines” (Hoffmann-La Roche Inc., priority 2004, dated 2009) can be followed below.

Experiment [1] deals with T1, FGFR.
T1 construct: fused on or other part: GST tag
The experiment is described as follows: FGFR kinase HTRF assay. It counts as biochemical. To be noted: 1.5 nM activated FGFR, 10 μM ATP; read-out: Inhibition of FGFR IC50. Here is the method:
To determine inhibition of KDR and FGFR, kinase assays were conducted using an HTRF (Homogeneous Time Resolved Fluorescence) assay. This assay is described in A. J. Kolb et. al., Drug Discovery Today, 1998, 3(7), p 333.
FGFR activity assays were carried out as described above for the KDR activity assay with the following differences. GST-tagged FGFR enzyme was activated at room temperature for 1 hour in the following activation buffer: 100 mM HEPES, pH 7.4, 50 mM NaCl, 20 mM MgCl2, and 4 mM ATP. […] The rest of the assay was performed in the same manner as KDR assay.
Compound IC50 values were determined from duplicate sets of data, and calculated by using Excel and fitting data to equation Y=[(a−b)/{1+(X/c)^d]+b, where a and b are enzyme activity in the presence of no test inhibitor compound and an infinite amount of inhibitor test compound, respectively, c is the IC50 and d is the hill constant of the compound response. The IC50 value is the concentration of test compound that reduces by 50% the enzyme activity under the test conditions described.

For experiment [2], the system named is FGF-stimulated HUVEC. The experiment is described as follows: FGF-stimulated HUVEC proliferation assay (BrdU). To be noted: Homo sapiens, BrdU labeling, FGF 5 ng per mL, 24 hour exposure, read-out: Antiproliferative Activity FGF-stimulated HUVEC Assay IC50. It counts as cell-based. The method, then:
The antiproliferative activity of test compounds of this invention in cell-based assays was evaluated by BrdU assay using the BrdU kit (Roche Biochemicals 1-647-229). Human umbilical vein endothelial cells (HUVEC, Clonetics CC-2519) were cultured in EGM-2 (Clonetics CC-3162) medium and seeded at 10000 cells per well in a volume of 200 μL of EGM-2 (Clonetics CC-3162) media in a 96-well flat bottom plates (Costar 3595) overnight. After 24 hours of growth at 37° C. with 5% CO2, the incubation media was removed slowly by aspiration, and the content of each well was washed with 300 μL pre-warmed EBM-2 (Clonetics CC-3156) containing 50 μg per mL of gentamycin and 50 ng per mL of amphotercin-B (Clonetics CC-4083). Subsequently, the remaining media was again aspirated and replaced with 160 μL per well of serum starvation media (EBM-2 supplemented with 1% heat inactivated FBS (Clonetics CC-4102), 50 μg per mL gentamycin and 50 ng per mL of amphotercin-B (Clonetics CC-4083), 10 units per mL of Wyeth-Ayerst heparin (NDC0641-0391-25), and 2 mM L-glutamine (GIBCO 25030-081). After serum starving the cells for 24 hours, 20 μL of test compound at 10× test concentration in serum starvation medium with 2.5% DMSO was added to the appropriate wells. The control wells contained 20 μL of serum starvation medium with 2.5% DMSO. Plates were returned to the incubator for 2 hours. After pre-incubating the cells with the test compounds for 2 hours, 20 μL of growth factors at 10X assay concentration diluted in serum starvation media, FGF at 50 ng per mL, or VEGF (R&D systems 293-VE) at 200 ng per mL were added. The final concentration of FGF in the assay was 5 ng per mL and the final concentration of VEGF in the assays was 20 ng per mL. The growth factor free control wells had 20 μL per well of serum starvation media with the same amount of BSA as the wells with growth factors. The plates were returned to the incubator for an additional 22 hours.
After 24 hour exposure to the test compounds, the cells were labeled with BrdU (Roche Biochemicals 1-647-229), by adding 20 μL per well of BrdU labeling reagent that has been diluted (1:100) in serum starvation medium. The plates were then returned to the incubator for 4 hours. The labeling medium was removed by draining the medium onto paper towels. […] The plates were read at 450 nm with reference wavelength of 650 nm. The percent inhibition for each test compound was calculated by subtracting the absorbency of the blank (no cells) wells from all wells, then subtracting the division of the average absorbency of each test duplicate by the average of the controls from 1. […] The IC50 is determined from the linear regression of a plot of the logarithm of the concentration versus percent inhibition.
A general note: Dividing cells build labelled thymidine or BrdU into new DNA.

Consider `COc1cc2c(cc1F)C(c1ccccc1Cl)=Nc1c(n[nH]c1C)N2` [IVa, 5-(2-chlorophenyl)-1,2-dihydro-7-fluoro-8-methoxy-3-methyl-pyrazolo[3,4-b][1,4]benzodiazepine], for which the half-inhibitory concentration (IC50) came to 28 nM in experiment [1] and 100 nM in experiment [2].

By IC50 is commonly meant the concentration that gives 50% inhibition.
